Source: patent US20260256668A1, “METHODS FOR STRENGTHENING AND REPAIRING HAIR” (Living Proof, Inc., priority 2023, published 2026)

Assays:
[1] = Hair denaturation temperature (Td) by differential scanning calorimeter (DSC); settings: 3× bleached hair; for hair denaturation temperature (Td) compared to bleached, virgin and phytic acid (PA) treated hair: 2 wt % active aqueous solution, pH 4.0-4.5, 10 min, blow dry (FIGS. 4, 6, 7)
Procedure: European virgin brown hair was bleached three times to obtain the 3× bleached hair model. Each bleaching was done with a mixture of bleaching powder (BW2) and 40V clear developer at 1:2 ratio (5 g mixture per 1.5 g of hair) for 1 hour at room temperature, followed by 30 s water rinse, 1× wash with Sodium Lauryl Ether Sulfate (SLES), and dried in a humidity chamber for 15 min at 50° C., 20% RH. […] For each DSC measurement, a 3-5 mg of hair sample in 50 μL Deionized water is sealed and equilibrated (overnight) in a stainless-steel pressure resistant high-volume pan, then heated from 25° C. to 180° C. at a 5° C./min heating rate.

[2] = Dia-Stron single fiber tensile (mechanical) testing; settings: 3× bleached hair, compared to bleached hair before treatment (FIG. 8)
Procedure: All single fiber tensile measurements are performed using a Dia-Stron MTT686/MTT690 (under 100% extension at gauge force of […], break threshold of 5 g, rate of 20 mm/min, maximum force of 2000 gmf and premature failure threshold of 10% strain). Before the tensile testing, all hair fibers (30 mm in length, ≥20 fibers per treatment) are fixed by 2 brass crimps at the ends and mounted on a Dia-Stron tray. Initial dimension measurements are collected using a Dia-Stron FDAS770 (double ended samples, sample size of 30 mm in length, no of slices of 5 under one rotation per slice), followed by equilibration in Deionized water for at least 2 h prior to testing.

[3] = Water contact angle (surface hydrophobicity), DSA100M Drop Shape Analyzer
Procedure: For this test, […], which was prepared by treating European virgin brown hair with a mixture of BW2 bleaching powder and clear 30 V developer (1:1.5 ratio, 5 g mixture per 1.5 g of hair) for 20 min under a Belvedere hooded dryer with high heat setting, followed by 30 s water rinse, 30 s 10% SLES wash, and air dry at room temperature. […] In the DSA method, a single hair fiber is mounted in a sample holder and focused by the digital camera of DSA100M. Then a droplet of filtered DI water (20-60 nL) is applied to the top of the hair fiber by a digital droplet applier, A video is then recorded until the disappearance of the water droplet. The water contact angle is obtained using the first image of the water droplet recorded. The data is collected for 3 fibers per treatment and 3 points per fiber, a total of 9 data points per treatment.

Compound | hair denaturation temperature (Td) compared to bleached, virgin and phytic acid (PA) treated hair [1] | Young's modulus [2] | other results
NCP(=O)(O)O [AMPA, Aminomethyl phosphonic acid] | full recovery of Td to the virgin level | biggest increases in Young's modulus | 
CCCCCCCCCCCCOP(=O)(O)O [DPhate, Lauryl phosphate] |  |  | water contact angle relative to virgin hair ([3]; ethanol solution 2 wt %, 10 min, blow dry (FIG. 12)): recovered significantly and close to the virgin level
O=P(O)(O)O[C@H]1[C@H](OP(=O)(O)O)[C@@H](OP(=O)(O)O)[C@H](OP(=O)(O)O)[C@@H](OP(=O)(O)O)[C@H]1OP(=O)(O)O [PA, phytic acid, reference compound] |  |  | hair denaturation temperature (Td) compared to the base formula ([1]; washed, 0.25 g formula (PA 0.75 wt %, with or without DPhate 1 wt %) 10 min, blow dried (FIG. 17)): significantly increased Td; hair surface hydrophobicity (water contact angle) compared to base formula ([3]; formula with PA 0.75 wt %, with or without DPhate 1 wt % (FIG. 18)): significantly improved hair surface hydrophobicity
C=CP(=O)(O)O [VPA, Vinyl phosphonic acid] | full recovery of Td to the virgin level | biggest increases in Young's modulus | 
Phosphatidylcholine [PC] |  |  | water contact angle relative to virgin hair ([3]; aqueous solution 1 wt % active (FIG. 14)): recovered close to the virgin level
